≈ marks a conversion by molar mass, not a printed value. Where “and” joins values, the source holds several entries; their conditions need not be identical. Equal values may be shown once. Entries after “also recorded” stand apart in the source; their conditions may differ. Read-outs that look alike come from different tables or passages of the source.
What was measured:
[1] = system: HCMV strain AD 169; assay: Rabbit HCMV efficacy and time course recovery (Example 6)
[2] = system: HCMV strain AD 169; assay: Rabbit HCMV ascending dose efficacy and time course recovery (Example 7); settings: for Average HCMV titer / HCMV Recovered, OD / HCMV Recovered, OS / HCMV Titer, OD / HCMV Titer, OS / HCMV recovery frequency / Optic neuritis score (ONH) / Vitreo-retinal score: PALA 50 or DHPG 10 mg/kg/d; for Vitreo-retinal score: sum of both eyes
[3] = system: clinical HCMV isolate; type: cell-based
[4] = system: HCMV strain AD169; type: cell-based
[5] = PALA 50, DHPG 10 or both, mg/kg/day i.v.
[6] = day 3, DHPG 10 or PALA 50 + DHPG 10 mg/kg/d, sum of both eyes
[7] = day 3, PALA 50, DHPG 10 or both, mg/kg/d
[8] = day 3, sham-inoculated S1-S5, dose as groups 1-5
[9] = day 4, DHPG 10 or PALA 50 + DHPG 10 mg/kg/d, sum of both eyes
[10] = day 4, PALA 50, DHPG 10 or both, mg/kg/d
[11] = day 4, sham-inoculated S1-S5, dose as groups 1-5
[12] = day 5, DHPG 10 or PALA 50 + DHPG 10 mg/kg/d, sum of both eyes
[13] = day 5, PALA 50, DHPG 10 or both, mg/kg/d
[14] = day 5, sham-inoculated S1-S5, dose as groups 1-5
[15] = day 6, PALA 50, DHPG 10 or both, mg/kg/d
[16] = day 6, sham-inoculated S1-S5, dose as groups 1-5
[17] = day 7, DHPG 10 or PALA 50 + DHPG 10 mg/kg/d, sum of both eyes
[18] = day 7, sham-inoculated S1-S5, dose as groups 1-5
[19] = day 10, DHPG 10 or PALA 50 + DHPG 10 mg/kg/d, sum of both eyes
[20] = day 10, sham-inoculated S1-S5, dose as groups 1-5

Nc1nc(O)c2ncn(COC(CO)CO)c2n1 [DHPG, reference compound]
HCMV recovery [1, 5]: better than the mid-dose and low-dose combination therapy group and the single agent PALA group and the placebo therapy group | clinical disease [1, 5]: did reduce the development of HCMV chorioretinal infection and disease and vitreitis | Optic neuritis score (ONH) ([1]; day 3, DHPG 10 or PALA 50 + DHPG 10 mg/kg/d): 2 | Chorioretinal score (C) [1, 6]: 0 | Vitreitis score (V) [1, 6]: 3 and 2 | HCMV Recovered, OD [1, 7]: + | HCMV Recovered, OS [1, 7]: + | HCMV Titer, OD [1, 7]: 10^3 pfu | HCMV Titer, OS [1, 7]: 10^3 pfu | HCMV recovery frequency [1, 7]: 2/2 | Chorioretinal score (C) [1, 8]: 0 | Vitreitis score (V) [1, 8]: 0 | Optic neuritis score (ONH) ([1]; day 3, sham-inoculated S2-S5, dose as groups 2-5): 0 | Chorioretinal score (C) [1, 9]: 0.5 | Vitreitis score (V) [1, 9]: 4 and 4.25 | HCMV Recovered, OD [1, 10]: + | HCMV Recovered, OS [1, 10]: - | HCMV Titer, OD [1, 10]: 10^1 pfu | HCMV recovery frequency [1, 10]: 1/2 | Chorioretinal score (C) [1, 11]: 0 | Vitreitis score (V) [1, 11]: 0 | Optic neuritis score (ONH) ([1]; day 4, sham-inoculated S2-S5, dose as groups 2-5): 0 | Optic neuritis score (ONH) ([1]; day 5, DHPG 10 or PALA 50 + DHPG 10 mg/kg/d): 4 and 5 | Chorioretinal score (C) [1, 12]: 0.5 | Vitreitis score (V) [1, 12]: 4.5 and 2.75 | HCMV Recovered, OD [1, 13]: - | HCMV Recovered, OS [1, 13]: - | HCMV recovery frequency [1, 13]: 0/2 | Chorioretinal score (C) [1, 14]: 0 | Vitreitis score (V) [1, 14]: 0 | Optic neuritis score (ONH) ([1]; day 5, sham-inoculated S2-S5, dose as groups 2-5): 0 | Vitreitis score (V) ([1]; day 6, DHPG 10 or PALA 50 + DHPG 10 mg/kg/d, sum of both eyes): 3.5 and 2.5 | HCMV Recovered, OD [1, 15]: + | HCMV Recovered, OS [1, 15]: - | HCMV recovery frequency [1, 15]: 1/2 | HCMV Titer, OD ([1]; day 6, PALA 50 or DHPG 10 mg/kg/d): 10^1 pfu | Chorioretinal score (C) [1, 16]: 0 | Vitreitis score (V) [1, 16]: 0 | Optic neuritis score (ONH) ([1]; day 6, sham-inoculated S2-S5, dose as groups 2-5): 0 | Optic neuritis score (ONH) ([1]; day 7, DHPG 10 or PALA 50 + DHPG 10 mg/kg/d): 3 and 6 | Chorioretinal score (C) [1, 17]: 0 | Vitreitis score (V) [1, 17]: 3.5 and 3 | Chorioretinal score (C) [1, 18]: 0 | Vitreitis score (V) [1, 18]: 0 | Optic neuritis score (ONH) ([1]; day 7, sham-inoculated S2-S5, dose as groups 2-5): 0 | Optic neuritis score (ONH) ([1]; day 10, DHPG 10 or PALA 50 + DHPG 10 mg/kg/d): 3 | Chorioretinal score (C) [1, 19]: 0 | Vitreitis score (V) [1, 19]: 1.75 and 1.25 | Chorioretinal score (C) [1, 20]: 0 | Vitreitis score (V) [1, 20]: 0 | Optic neuritis score (ONH) ([1]; day 10, sham-inoculated S2-S5, dose as groups 2-5): 0 | clinical disease / efficacy ([2]; PALA 50 or DHPG 10 mg/kg/day i.v.): did reduce the development of HCMV-induced optic nerve disease severity; also recorded: vitreitis was only marginally affected | Average HCMV titer ([2]; day 3): 10^3 pfu | HCMV Recovered, OD ([2]; day 3): + | HCMV Recovered, OS ([2]; day 3): - and + | HCMV Titer, OD ([2]; day 3): 10^4 pfu | HCMV Titer, OS ([2]; day 3): 10^3 pfu | HCMV recovery frequency ([2]; day 3): 3/4 | Optic neuritis score (ONH) ([2]; day 3): 5.0 and 4.0 | Vitreo-retinal score ([2]; day 3): 4.75 and 5.0 | HCMV Recovered, OD ([2]; day 4): + | HCMV Recovered, OS ([2]; day 4): - | HCMV Titer, OD ([2]; day 4): 10^2 pfu and 10^3 pfu | HCMV recovery frequency ([2]; day 4): 2/4 | Optic neuritis score (ONH) ([2]; day 4): 6.0 and 5.0 | Vitreo-retinal score ([2]; day 4): 3.75 and 5.75 | Average HCMV titer ([2]; day 5): 10^2 pfu | HCMV Recovered, OD ([2]; day 5): - and + | HCMV Recovered, OS ([2]; day 5): + and - | HCMV Titer, OD ([2]; day 5): 10^2 pfu | HCMV Titer, OS ([2]; day 5): 10^2 pfu | HCMV recovery frequency ([2]; day 5): 2/4 | Optic neuritis score (ONH) ([2]; day 5): 4.0 and 5.0 | Vitreo-retinal score ([2]; day 5): 4.0 and 5.0 | Average HCMV titer ([2]; day 6): 10^1 pfu | HCMV Recovered, OD ([2]; day 6): - | HCMV Recovered, OS ([2]; day 6): - and + | HCMV Titer, OD ([2]; day 6): 10^2 pfu | HCMV recovery frequency ([2]; day 6): 1/4 | Optic neuritis score (ONH) ([2]; day 6): 2.0 | Optic neuritis score (ONH) ([2]; day 7): 2.0 | Vitreo-retinal score ([2]; day 7): 3.25 and 5.5 | HCMV Recovered, OD ([2]; day 12): - | HCMV Recovered, OS ([2]; day 12): - | reduction of HCMV titer [3]: effective in reducing the titer | Cell associated HCMV titer ([3]; day 0 PI): 10^2 PFU/ml | Cell free (supernatant) HCMV titer ([3]; day 0 PI): 10^5 PFU/ml | Cell associated HCMV titer ([3]; day 1 PI): 10^3 PFU/ml | Cell free (supernatant) HCMV titer ([3]; day 1 PI): 10^1 PFU/ml | Cell associated HCMV titer ([3]; day 2 PI): 10^2 PFU/ml | Cell free (supernatant) HCMV titer ([3]; day 2 PI): 10^1 PFU/ml | Cell associated HCMV titer ([3]; day 3 PI): 10^1 PFU/ml | Cell free (supernatant) HCMV titer ([3]; day 3 PI): 10^1 PFU/ml | Cell associated HCMV titer ([3]; day 4 PI): 10^1 PFU/ml | Cell free (supernatant) HCMV titer ([3]; day 4 PI): 10^1 PFU/ml | Cell associated HCMV titer ([3]; day 5 PI): 0 PFU/ml | Cell free (supernatant) HCMV titer ([3]; day 5 PI): 0 PFU/ml | Cell associated HCMV titer ([3]; day 6 PI): 10^1 PFU/ml | Cell associated HCMV titer ([3]; day 7 PI): 10^1 PFU/ml | EC50 ([4]; Human betaherpesvirus 5, AD169, Hs68, AD 169, read-out: ED50 (the source's name)): 19 µg/mL (≈ 74.4 µM) | Cell associated HCMV titer ([4]; day 0 PI): 10^2 PFU/ml | Cell free (supernatant) HCMV titer ([4]; day 0 PI): 10^5 PFU/ml | Cell associated HCMV titer ([4]; day 1 PI): 10^2 PFU/ml | Cell free (supernatant) HCMV titer ([4]; day 1 PI): 10^1 PFU/ml | Cell associated HCMV titer ([4]; day 2 PI): 10^1 PFU/ml | Cell free (supernatant) HCMV titer ([4]; day 2 PI): 10^1 PFU/ml | Cell associated HCMV titer ([4]; day 3 PI): 10^1 PFU/ml | Cell free (supernatant) HCMV titer ([4]; day 3 PI): 10^1 PFU/ml | Cell associated HCMV titer ([4]; day 4 PI): 10^1 PFU/ml | Cell free (supernatant) HCMV titer ([4]; day 4 PI): 0 PFU/ml | Cell associated HCMV titer ([4]; day 5 PI): 0 PFU/ml | Cell free (supernatant) HCMV titer ([4]; day 5 PI): 0 PFU/ml | Cell associated HCMV titer ([4]; day 6 PI): 10^1 PFU/ml | Cell associated HCMV titer ([4]; day 7 PI): 0 PFU/ml

Source: patent US5491135A (priority 1993, dated 1996)
